From PMC2918917 (New journal of chemistry = Nouveau journal de chimie, 2010)
Read-outs that look alike come from different tables or passages of the source. One block for each molecule: values may come before it.

Key:
[1] = system: cultured mouse mammary cells; conditions: cited from earlier work
[2] = system: microRNA-mediated translational repression; conditions: cited from earlier work; for enhancement of microRNA-mediated translational repression: Drosophila melanogaster embryos extract
human DcpS = molecular target: T1, human DcpS (Homo sapiens, UniProt Q96C86); assay: hDcpS assay: enzymatic hydrolysis of cap analogs monitored by RP HPLC; conditions: positive control; cleavage to m^7GMP and GDP; amount of DcpS adjusted
T1 sequence (Q96C86 1-337): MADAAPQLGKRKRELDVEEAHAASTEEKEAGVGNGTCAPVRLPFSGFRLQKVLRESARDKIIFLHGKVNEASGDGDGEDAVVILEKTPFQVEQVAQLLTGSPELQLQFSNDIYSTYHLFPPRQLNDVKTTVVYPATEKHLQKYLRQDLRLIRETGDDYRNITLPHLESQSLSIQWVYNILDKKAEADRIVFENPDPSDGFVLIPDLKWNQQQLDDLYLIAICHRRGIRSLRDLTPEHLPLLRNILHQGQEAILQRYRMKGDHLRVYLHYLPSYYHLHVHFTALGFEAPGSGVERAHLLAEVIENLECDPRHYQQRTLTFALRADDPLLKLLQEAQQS

[3] = system: rabbit reticulocyte lysate (RRL) system; conditions: cited from earlier work
hDcp2 = hDcp2 (Homo sapiens, UniProt Q8IU60); assay: In vitro decapping of capped mRNA by hDcp2; format: biochemical; conditions: mRNA capped with D1 plus D2 mixture; preliminary results, unpublished work [21]
cultured cells = conditions: cited from earlier work

Molecule: CO[C@@H]1[C@H](O)[C@@H](COP(=O)(O)OP(O)(=S)OP(=O)(O)OC[C@H]2O[C@@H](n3cnc4c(=O)[nH]c(N)nc43)[C@H](O)[C@@H]2O)O[C@H]1n1c[n+](C)c2c(=O)[nH]c(N)nc21 (stereo partly drawn) [m2^7,2’-OGppSpG (D2)]
- translation efficiency relative to m2^7,2’-OGpppG-capped mRNA [1]: 2.4

Molecule: COC1C(O)C(COP(=O)(O)OP(=O)(O)OP(O)(=S)OCC2OC(n3cnc4c(=O)[nH]c(N)nc43)C(O)C2O)OC1n1c[n+](C)c2c(=O)[nH]c(N)nc21 (stereo not drawn) [m2^7,2’-OGpppSG (D2)]
- enhancement of microRNA-mediated translational repression [2]: 2 fold
- enhancement of microRNA-mediated translational repression ([2]; listed as m2^7,2'-OGpppSG (D2)): ~ 2 fold
- effect on general cap-dependent translation [2]: no change
- effect on general cap-dependent translation ([2]; listed as m2^7,2'-OGpppSG (D2)): neutral

Molecule: Cn1c[n+]([C@@H]2O[C@H](COP(=O)(O)OP(=O)([O-])OP(=O)(O)OC[C@H]3O[C@@H](n4cnc5c(=O)[nH]c(N)nc54)[C@H](O)[C@@H]3O)[C@@H](O)[C@H]2O)c2nc(N)[nH]c(=O)c21 [m^7GpppG]
- time to complete cleavage by DcpS (human DcpS): less than 15 min

Molecule: COC1C(COP(=O)([O-])OP(=O)(O)OP(=O)(O)OP(=O)(O)OP(=O)(O)OCC2OC(n3cnc4c(=O)[nH]c(N)nc43)C(O)C2O)OC(n2c[n+](C)c3c(=O)[nH]c(N)nc32)C1O (stereo not drawn) [m2^7,3'-OGp5G]
- translation efficiency of mRNA capped with pentaphosphate analog [3]: not effective in promoting translation

- susceptibility of capped mRNA to in vitro decapping by hDcp2 (hDcp2): resistant
Molecule: P1-(7,2'-O-dimethylguanosin-5'-y l ) P4-guanosin-5'-yl (3-thiotetraphosphate) [compound 2]

Molecule: m2^7,3'-OGppCH2pG
- half-life of capped mRNA transfected into cultured cells (cultured cells): prolonged half-life
- translation of capped mRNA versus regular ARCA (cultured cells): translated even less efficiently

Molecule: C[n+]1cn(C2OC(COP(=O)([O-])OP(=O)(O)OP(=O)(O)OP(=O)(O)OP(=O)(O)OP(=O)(O)OCC3OC(n4cnc5c(=O)[nH]c(N)nc54)C(O)C3O)C(O)C2O)c2nc(N)[nH]c(=O)c21 (stereo not drawn) [m^7Gp6G]
- enhancement of microRNA-mediated translational repression [2]: ~ 2 fold
- effect on general cap-dependent translation [2]: neutral
